One assay concerns delayed hypersensitivity. Description: Test 1: Test of Reinforcement of Delayed Hypersensitivity. The assay is classed as in vivo, ICR male mice. The settings on record: mouse, 50 mg/Kg oral, 24 hours after challenge; * P<0.05, ** P<0.01; control 29.6 ± 1.9. An excerpt:
Various test systems using animals have been proposed for determining the immunopotensiative action. Results of the test of reinforcement of the delayed hypersensitivity, which is a typical test among these tests, will now be described.
This system was used for the test of reinforcement of the delayed hypersensitivity.
One groups of eight ICR male mice, each having a body weight of about 30 g, were used for the test.
Sensitization was effected by coating a 7% solution of picryl chloride in a 4/1 mixture of olive oil and acetone on the shaved abdomen of the mouse.
Simultaneously with sensitization, a solution or suspension of the compound of the present invention in a 0.2% solution of carboxymethyl cellulose in a physiological saline solution was orally administered to the mouse at a dose of 50 mg per Kg of the body weight. To the control group, a 0.2% carboxymethyl cellulose solution in a physiological saline solution was similarly administered.
The delayed hypersensitivity was challenged 7 days after sensitization by gripping the ear of the mouse by a forceps wrapped with a felt impregnated with a 1% solution of picryl chloride in olive oil and coating the ear with the solution. The thickness of the ear was measured before challenging and 24 hours after challenging and the ratio of increase of the thickness (average value of both the ears in eight mice±standard deviation) was obtained as shown in Table 1.
For comparison, the test was similarly carried out by using Levamisol hydrochloride, and the obtained results are shown in Table 1. F.t tests were carried out. The group in which the test result was significant at a level of P<0.05 was marked by *, and the group in which the test result was significant at a level of P<0.01 ws marked by **.

In the next assay the test system is adjuvant arthritis. As to the kind of experiment: Test 2: Adjuvant Arthritis Test. The format is in vivo, SD male rats. The settings on record: rat, 5 mg/Kg subcutaneous, 9 times, left hind leg, * P<0.05, ** P<0.01.
The test system of a further assay is EL-4 leukemic cells. Description: Test 3: In-Vitro Test of Inhibition of Growth of Cancer Cell by Macrophage. The format is cell-based. Conditions: 8 mg/Kg intraperitoneal to mice, macrophages collected after 4 days, with EL-4 cells; control 80.2. The protocol: The results of the test of the action of the effective ingredient of the present invention on the macrophage will now be described with reference to the following Test 3. More specifically, the separated macrophage and EL-4 leukemic cell were mixed and cultured, and ^3 H-thymidine was added to a culture medium and the quantity of ^3 H-thymidine incorporated into the EL-4 cell was determined to examine the activity of the macrophage. When the macrophage is activated by administration of the effective ingredient of the present invention, inhibition of the growth of EL-4 cell, that is, phagocytosis of the cancer cell by the macrophage, is observed. Accordingly, if the take-in amount of ^3 H-thymidine is measured and this amount is reduced, it is confirmed that the macrophage has been activated. […] The dose was 8 mg per Kg of the body weight. To the control group, a physiological saline solution was similarly administered. After passage of 4 days, exuded abdominal cells were collected and deposited on a plastic Petri dish to collect microphages. Then, 1×10^6 of so obtained macrophages and 1×10^5 of EL-4 leukemic cells of C57 BL/6J mouse were mixed with cultured in an RPM1 1640 culture medium to which 10% of bovine embryo serum was added (at 37° C. in the presence of 5% of CO2) for 24 hours. Then, 0.1μ Ci of ^3 H-thymidine was added and culturing was further conducted for 16 hours. Cells were collected on a filter paper from the culture medium and the amount of ^3 H-thymidine taken in was determined by a liquid scintillation counter. […] For comparison, the test was similarly carried out by using Levamisol hydrochloride. Results

Assay [1] relates to Sarcoma 180. As to the kind of experiment: Test 4: Test of Antitumor Effect to Sarcoma 180 by Oral Administration. The format is in vivo, ICR female mice. The settings on record: for N: number of living mice: 100 mg/Kg oral; for D: average diameter of tumor: 100 mg/Kg oral once a day, 10 days. The protocol: To the control group, a physiological saline solution was similarly administered. The dose of the compound was 100 mg per Kg of the body weight. The diameter D (mm) of the tumor was measured, and the average value and the number N of the living mice were determined to obtain results shown in Table 4.

Assay [2] relates to Sarcoma 180. As to the kind of experiment: Test 5: Test of Carcinostatic Effect to Sarcoma 180 by Subcutaneous Administration. The assay is classed as in vivo, ICR female mice. Conditions: 20 mg/Kg subcutaneous. The protocol: To the control group, a physiological saline solution was similarly administered. […] The diameter D (mm) of the tumor was measured, and the average value and the number N of the living mice were determined to obtain results shown in Table 4.

`CN1CCN(C(=O)N2CCCC2)CC1` [drawing 7]: the “Ratio of Increase of Ear Thickness (average value ± Standard Variation)” value (from here on “Ratio of Increase of Ear Thickness”) in the assay with delayed hypersensitivity is 36.7 ± 2.5%.
Regarding `CN1CCN(C(=O)N2CCCCC2)CC1` [drawing 8], the “Ratio of Increase of Ear Thickness” value in the assay with delayed hypersensitivity was found to be 43.5 ± 2.8%.
Take `O=C(N1CCCCC1)N1CCN(c2ccccc2)CC1` [drawing 9]: the “Ratio of Increase of Ear Thickness” value in the assay with delayed hypersensitivity is 45.0 ± 4.6%.
On to `CN1CCN(C(=O)N2CCCC2)CC1` [drawing 10], for which the “Swelling Ratio (average value ± standard variation)” value (“Swelling Ratio” for short) in the assay on adjuvant arthritis (15 days, control 84.4 ± 9.0) stood at 54.6 ± 11.3%; in the assay on adjuvant arthritis (18 days, control 103.2 ± 9.7), 61.7 ± 13.0%; in the assay with adjuvant arthritis (21 days, control 107.5 ± 13.3) it was 73.3 ± 14.6%.
Take `CN1CCN(C(=O)N2CCCCC2)CC1` [drawing 11]: the “Swelling Ratio” value in the assay with adjuvant arthritis (15 days, control 84.4 ± 9.0) stood at 49.4 ± 10.3%; in the assay with adjuvant arthritis (18 days, control 103.2 ± 9.7) it was 62.0 ± 12.5%; in the assay with adjuvant arthritis (21 days, control 107.5 ± 13.3), 68.1 ± 14.0%.
Regarding `O=C(N1CCCCC1)N1CCN(c2ccccc2)CC1` [drawing 12], the “Swelling Ratio” value in the assay on adjuvant arthritis (15 days, control 84.4 ± 9.0) is 39.5 ± 11.7%; in the assay on adjuvant arthritis (18 days, control 103.2 ± 9.7) it was 56.1 ± 10.8%; with adjuvant arthritis (21 days, control 107.5 ± 13.3) it was 74.4 ± 13.9%.
As for `CN1CCN(C(=O)N2CCCC2)CC1` [drawing 13], the “Take-In Ratio of 3H-thymidine (average value)” value (“Take-In Ratio of 3H-thymidine” for short) in the assay on EL-4 leukemic cells was found to be 25.7%.
In the case of `CN1CCN(C(=O)N2CCCCC2)CC1` [drawing 14], the “Take-In Ratio of 3H-thymidine” value in the assay with EL-4 leukemic cells came to 22.6%.
In the case of `O=C(N1CCCCC1)N1CCN(c2ccccc2)CC1` [drawing 15], the “Take-In Ratio of 3H-thymidine” value in the assay on EL-4 leukemic cells was 21.9%.
Consider `CN1CCN(C(=O)N2CCCC2)CC1` [drawing 16], for which the “N: number of living mice” value is listed as 6 with Sarcoma 180 [1] (0 weeks, control 6); 6 in the assay on Sarcoma 180 [1] (2 weeks, control 6); 6 in the assay on Sarcoma 180 [1] (4 weeks, control 6); 6 in the assay on Sarcoma 180 [1] (6 weeks, control 6); 6 in the assay on Sarcoma 180 [1] (8 weeks, control 5); 6 in the assay with Sarcoma 180 [1] (10 weeks, control 1). In addition, the “D: average diameter of tumor” value is given as 7.7 mm with Sarcoma 180 [1] (2 weeks, control 10.6); 6.3 mm in the assay with Sarcoma 180 [1] (4 weeks, control 15.2); 5.5 mm in the assay with Sarcoma 180 [1] (6 weeks, control 22.4); 4.7 mm in the assay with Sarcoma 180 [1] (8 weeks, control 31.5); 0 mm in the assay on Sarcoma 180 [1] (10 weeks, control 37.6).
Take `CN1CCN(C(=O)N2CCCCC2)CC1` [drawing 17]: the “N: number of living mice” value is given as 6 in the assay on Sarcoma 180 [1] (0 weeks, control 6); 6 in the assay with Sarcoma 180 [1] (2 weeks, control 6); 6 with Sarcoma 180 [1] (4 weeks, control 6); 6 in the assay with Sarcoma 180 [1] (6 weeks, control 6); 6 in the assay with Sarcoma 180 [1] (8 weeks, control 5); 6 with Sarcoma 180 [1] (10 weeks, control 1). In addition, the “D: average diameter of tumor” value is 6.0 mm in the assay with Sarcoma 180 [1] (2 weeks, control 10.6); 4.7 mm in the assay with Sarcoma 180 [1] (4 weeks, control 15.2); 4.8 mm in the assay with Sarcoma 180 [1] (6 weeks, control 22.4); 3.3 mm in the assay with Sarcoma 180 [1] (8 weeks, control 31.5); 0 mm in the assay with Sarcoma 180 [1] (10 weeks, control 37.6).
As for `O=C(N1CCCCC1)N1CCN(c2ccccc2)CC1` [drawing 18], the “N: number of living mice” value turned out to be 6 in the assay on Sarcoma 180 [1] (0 weeks, control 6); 6 in the assay on Sarcoma 180 [1] (2 weeks, control 6); 6 in the assay with Sarcoma 180 [1] (4 weeks, control 6); 6 in the assay on Sarcoma 180 [1] (6 weeks, control 6); 6 in the assay with Sarcoma 180 [1] (8 weeks, control 5); 6 in the assay on Sarcoma 180 [1] (10 weeks, control 1). For the same compound, the “D: average diameter of tumor” value stood at 6.2 mm in the assay with Sarcoma 180 [1] (2 weeks, control 10.6); 3.8 mm in the assay on Sarcoma 180 [1] (4 weeks, control 15.2); 4.4 mm in the assay on Sarcoma 180 [1] (6 weeks, control 22.4); 5.3 mm in the assay on Sarcoma 180 [1] (8 weeks, control 31.5); 0 mm in the assay on Sarcoma 180 [1] (10 weeks, control 37.6).
For the compound `CN1CCN(C(=O)N2CCCC2)CC1` [drawing 19], the “N: number of living mice” value was 6 with Sarcoma 180 [2] (0 weeks, control 6); 6 in the assay with Sarcoma 180 [2] (2 weeks, control 6); 6 in the assay on Sarcoma 180 [2] (4 weeks, control 6); 6 in the assay with Sarcoma 180 [2] (6 weeks, control 6); 6 in the assay on Sarcoma 180 [2] (8 weeks, control 4); 5 in the assay on Sarcoma 180 [2] (10 weeks, control 1). Also, the “D: average diameter of tumor” value is 2.2 mm in the assay with Sarcoma 180 [2] (2 weeks, control 10.8); 3.6 mm in the assay with Sarcoma 180 [2] (4 weeks, control 16.6); 6.1 mm with Sarcoma 180 [2] (6 weeks, control 20.3); 1.2 mm in the assay with Sarcoma 180 [2] (8 weeks, control 31.2); 0 mm with Sarcoma 180 [2] (10 weeks, control 40.5).
For `CN1CCN(C(=O)N2CCCCC2)CC1` [drawing 20], the “N: number of living mice” value in the assay with Sarcoma 180 [2] (0 weeks, control 6) came out at 6; in the assay with Sarcoma 180 [2] (2 weeks, control 6) it was 6; with Sarcoma 180 [2] (4 weeks, control 6) it was 6; with Sarcoma 180 [2] (6 weeks, control 6) it was 6; in the assay on Sarcoma 180 [2] (8 weeks, control 4) it was 6; with Sarcoma 180 [2] (10 weeks, control 1), 6. Further, the “D: average diameter of tumor” value in the assay with Sarcoma 180 [2] (2 weeks, control 10.8) was 1.6 mm; with Sarcoma 180 [2] (4 weeks, control 16.6), 3.7 mm; with Sarcoma 180 [2] (6 weeks, control 20.3) it was 5.7 mm; in the assay with Sarcoma 180 [2] (8 weeks, control 31.2), 0.8 mm; in the assay with Sarcoma 180 [2] (10 weeks, control 40.5) it was 0 mm.
Turning to `O=C(N1CCCCC1)N1CCN(c2ccccc2)CC1` [drawing 21], the “N: number of living mice” value with Sarcoma 180 [2] (0 weeks, control 6) is reported as 6; in the assay with Sarcoma 180 [2] (2 weeks, control 6) it was 6; in the assay on Sarcoma 180 [2] (4 weeks, control 6), 6; in the assay with Sarcoma 180 [2] (6 weeks, control 6), 6; in the assay with Sarcoma 180 [2] (8 weeks, control 4) it was 6; in the assay on Sarcoma 180 [2] (10 weeks, control 1), 6. Further, the “D: average diameter of tumor” value stood at 2.4 mm in the assay on Sarcoma 180 [2] (2 weeks, control 10.8); 3.9 mm with Sarcoma 180 [2] (4 weeks, control 16.6); 5.2 mm with Sarcoma 180 [2] (6 weeks, control 20.3); 0.2 mm in the assay with Sarcoma 180 [2] (8 weeks, control 31.2); 0 mm in the assay on Sarcoma 180 [2] (10 weeks, control 40.5).

The record behind these values is patent US4420481A, “Use of piperazine compounds as immunopotentiating agents” (Mitsuitoatsu Chemicals Inc., priority 1980, dated 1983).
